Results from patent publication US7659273B2, “Composition for accelerating bone fracture healing” (Mitsubishi Tanabe Pharma Corporation, priority 2001, dated 2010).

Tests used:
[1] = tested on: rabbit costicartilage cells; assay: Cartilage matrix (proteoglycan) production, Alcian blue staining (Experimental Examples 3 and 4); format: cell-based; settings: summary of Tables 10 and 11
Excerpt: Costicartilages were isolated from NZ line rabbit (Kitayama Labes., Co Ltd.; male; 4-week-old) and soaked into Hank's balanced salt solution (calcium- and magnesium-free; LifeTech Co., Ltd.; hereinafter, referred to as “HBSS”). One costicartilage and one costa were excised together, the adipose tissue and the muscle tissue were removed and then, the proliferating chondrocyte layer of costicartilage was excised. The collected proliferating chondrocyte layer was cut into sections with a surgical knife (FEATHER Safety Razor Co., Ltd.) and the all proliferating chondrocyte layer sections from 4 rabbits were combined in a centrifuge tube. To the centrifuge tube was added 40 ml of HBSS (pH 7.2) supplied with 0.1% tetrasodium ethylenediamine tetraacetate to obtain suspension of the proliferating chondrocyte layer sections, which was shaken at 37° C. for 20 minutes and centrifuged (1500 rpm, 10 minutes). The supernatant was aspirated off, and 40 ml of HBSS (pH 7.2) supplied with 0.2% trypsin was added to the tube to suspend the precipitates and shaken at 37° C. for 1 hour. The tube was centrifuged (1500 rpm, 10 minutes), and the supernatant was aspirated off. The precipitates were washed twice with HBSS, suspended in 100 ml of HBSS supplied with 0.1% collagenase (Wako Pure Chemical Industries, Ltd., 034-10533) and shaken at 37° C. for 3 hours. The content of the tube was passed through the Cell Strainer (pore size 40 μm) and the filtrate was divided into four centrifuge tubes. To each of all four tubes was added 40 ml of medium (α-MEM, LifeTech Co., Ltd.), and the tubes were centrifuged (1500 rpm, 10 minutes). The supernatant was aspirated off, and the resultant precipitates were collected in one tube with Pipetman. After addition of 40 ml of the same medium, the tube was re-centrifuged (1500 rpm, 10 minutes). Washing procedure comprising addition of medium followed by centrifugation was repeated additional three times. The precipitates were suspended in the same medium to give an about 5 ml suspension, and the cell number was counted.
The suspension of costicartilage cell described above was added to 24-well plate at 50,000 cells per well (day 1). […]
After removing the medium, cells in each well were fixed by addition of 1 ml of neutral buffer containing 4% paraformaldehyde and incubation for 30 minutes at room temperature. […] Absorbance at 620 nm was measured, and cartilage matrix amount (proteoglycan production amount) in each well was estimated, and proteoglycan production rate (%) of each test compound for vehicle (100%) was calculated.
The cartilage matrix (proteoglycan) production was determined using other compounds (compounds (52)-(55) and Compound (2) for comparison) in exactly the same manner as Experimental Example 3 above.

[2] = tested on: cultured rabbit costicartilage cells; assay: Calcification of chondrocyte (Experimental Example 5); format: cell-based; settings: 10^−4 M; 4 week cultivation; silver nitrate and Alizarin Red staining; FIG. 1
Excerpt: Costicartilages were isolated from NZ line rabbit (Kitayama Labes., Co Ltd.; male; 4-week-old) and soaked into Hank's balanced salt solution (calcium- and magnesium-free; LifeTech Co., Ltd.; hereinafter, referred to as “HBSS”). One costicartilage and one costa were excised together, the adipose tissue and the muscle tissue were removed and then, the proliferating chondrocyte layer of costicartilage was excised. The collected proliferating chondrocyte layer was cut into sections with a surgical knife (FEATHER Safety Razor Co., Ltd.) and the all proliferating chondrocyte layer sections from 4 rabbits were combined in a centrifuge tube. To the centrifuge tube was added 40 ml of HBSS (pH 7.2) supplied with 0.1% tetrasodium ethylenediamine tetraacetate to obtain suspension of the proliferating chondrocyte layer sections, which was shaken at 37° C. for 20 minutes and centrifuged (1500 rpm, 10 minutes). The supernatant was aspirated off, and 40 ml of HBSS (pH 7.2) supplied with 0.2% trypsin was added to the tube to suspend the precipitates and shaken at 37° C. for 1 hour. The tube was centrifuged (1500 rpm, 10 minutes), and the supernatant was aspirated off. […] The precipitates were suspended in the same medium to give an about 5 ml suspension, and the cell number was counted. […]

fibula fracture region = assay: Acceleration of fracture healing in normal rat, Compound (1) microspheres (Experimental Example 1); format: in vivo; settings: normal rats, Example 2-(1) microspheres, 6 weeks after suturing; for Fibula Bone Mineral Density: at cutting site; for Fibula Bone Mineral Density / Fibula Bone Mineral Content: DXA at fracture region; for Breaking Energy / Breaking force: three-point bending test
Method: CD (SD) IGS rats (Charles River Japan, Inc.; male; 7-week-old) were housed for seven days at room temperature (23±2° C.) and 40-70% humidity. During the housing period, the rats were free to access commercially available food (from Oriental Bio; CE-2).
Under ether anesthesia, the left-lower legs of rats were shaved and sterilized with 70% aqueous ethanol, fibulas were exposed with scissors and cut with nail scissors (Natsume Seisakusyo; B17). The cut sections of the fibula were re-matched with tweezers. For the test groups (20 rats/group), the drug-containing microspheres prepared in Example 2-(1), which contains 0.1 or 0.5 mg of Compound (1), were placed around the cutting site of each rat using spatula followed by suturing with silk thread. For the control group (20 rats/group), the same amount of drug-free microspheres prepared in Control Example 1-(1) were placed around the cutting site using spatula followed by suturing with silk thread. Following the suturing, animals of every group were sterilized with 70% aqueous ethanol. At six weeks after the suturing, under ether anesthesia, 10 rats from each group were sacrificed by laparotomy with bleeding and the fibulas were excised.
The fibula excised at 6 weeks after suturing was subjected to DXA bone densitometer (Aloka; DCS-600) to determine bone mineral density and bone mineral content at fracture region (scanning width: 1 mm).
The volume of fibula excised 6 weeks after suturing was determined using Plethysmometer (Muromachi Kikai Co., Ltd.; TK-101).
The fibula excised at 6 weeks after suturing was subjected to a three-point bending test with bone strength tester (from Muromachi Kikai Co., Ltd.; TK-252C) to determine bone strength. Briefly, the fibula was supported by two supports apart from each other by 8 mm and the cut section was positioned at the middle of these supports, i.e., 4 mm apart from the respective two supports. Loading (3 mm/minute) from upper direction was kept on the middle point (fracture section) of fibula until fibula begins to fracture. The maximum pressure necessary to break the bone was defined as the breaking force and the total energy spent to break the bone was defined as the breaking energy.

[3] = tested on: backbone, femur and cortical bone of mouse; settings: daily subcutaneous injection; cited from earlier work

With `COc1cc2cc(CO)nc(-c3ccnc(-n4nc(-c5nccs5)c5ccccc5c4=O)c3)c2cc1OC` [Compound (53)] the “cartilage matrix (proteoglycan) production promoting effect (in words)” value (from here on “cartilage matrix”) [1] was “remarkable matrix production promoting effect”.

For `CCOc1cc2cc(CO)c(CO)c(-c3ccn(CCOC)c(=O)c3)c2cc1OCC` [Compound (1)], the “calcium deposition / calcification enhancement” value [2] was “calcium deposition was clearly observed”, the “cartilage matrix” value [1] was “remarkable matrix production promoting effect” and the “Fibula Bone Mineral Density” value (fibula fracture region; drug content 0.1 mg) was 36.77 ± 1.52 mg/cm^2. The “Fibula Bone Volume” value (fibula fracture region; drug content 0.1 mg) was 68.1 ± 2.9 µL, the “Fibula Bone Mineral Content” value (fibula fracture region; drug content 0.1 mg) was 14.27 ± 0.76 mg and the “Breaking Energy” value (fibula fracture region; drug content 0.1 mg) was 4.37 ± 0.71 mJ. For the same compound, the Breaking force (fibula fracture region; drug content 0.1 mg) was 19.8 ± 2.14 N, the “Fibula Bone Mineral Density” value (fibula fracture region; drug content 0.5 mg) was 40.05 ± 1.34 mg/cm^2 and the “Fibula Bone Volume” value (fibula fracture region; drug content 0.5 mg) was 77.2 ± 2.9 µL. The “Fibula Bone Mineral Content” value (fibula fracture region; drug content 0.5 mg) was 15.20 ± 0.82 mg, the “Breaking Energy” value (fibula fracture region; drug content 0.5 mg) was 6.44 ± 1.06 mJ and the Breaking force (fibula fracture region; drug content 0.5 mg) was 23.0 ± 1.68 N.

In the case of `COc1ccc(C2CNC(=O)C2)cc1OC1CCCC1` (stereo not drawn) [Rolipram], the “bone mineral density of the backbone and the femur” value [3] is given as “increase of bone mineral density of the backbone and the femur” and the “hyperplasia of cortical bone” value [3] is given as “hyperplasia of cortical bone”.

For `COc1cc2c(cc1OC)C(c1ccnc(-n3ccc4c(OCCN5CCOCC5)cccc4c3=O)c1)=N[C@H](CO)C2` [Compound (52)], the “cartilage matrix” value [1] was “remarkable matrix production promoting effect”.

For `CC(=O)CCCCn1c(=O)c2c(ncn2C)n(C)c1=O` [Pentoxifylline], the “bone mineral density of the backbone and the femur” value [3] is listed as “increase of bone mineral density of the backbone and the femur” and the “hyperplasia of cortical bone” value [3] is listed as “hyperplasia of cortical bone”.
